For the assay, the target named is T1, glycine binding site of the NMDA receptor channel (Rattus norvegicus, UniProt P35439).
T1 construct: from tissue; host or cells: rat brain cortex and hippocampus membrane homogenate
The assay can be described thus: Receptor binding, displacement of (3H)-MDL 105.519 on rat cerebral membrane homogenates. To be noted: 10 μmol/l test substance; 1 nmol/l (3H)-MDL 105.519; read-out: Displacement (%, 10 μmol/l) of radioactive ligand from specific binding. On the procedure: Receptor Binding (Glycine Binding Site of the NMDA Receptor Channel)
Experiments to determine the affinity of the compounds according to the invention of Formula I to the glycine binding site of the NMDA receptor channel were carried out on cerebral membrane homogenates (homogenate of Cortex- and Hippocampus-Areal from the brain of male rats, Wistar strain) (B. M. Baron, B. W. Siegel, B. L. Harrison, R. S. Gross, C. and P. Towers, Journal of Pharmacology and Experimental Therapeutics, Vol. 279, p. 62, 1996).
For this purpose, Cortex and Hippocampus from freshly removed rats' brains were dissected, homogenized in 5 mmol/l TRIS-acetate buffer, 0.32 mol/l sacharose pH 7.4 (10 ml/g fresh weight) with a Potter homogenizer (made by Braun/Melsungen, 10 piston strokes at 500 rpm) while cooling with ice and subsequently centrifuged for 10 minutes at 1,000 g and 4° C. The first supernatant material was collected and the sediment homogenized again with […] TRIS-acetate buffer, 0.32 mol/l safcharose pH 7.4 (5 ml/g original fresh weight) using the Potter homogenizer (10 piston strokes at 500 rpm) while cooling with ice and centrifuged for 10 minutes at 1,000 g and 4° C. The resultant supernatant material was combined with the supernatant material from the first centrifugation and centrifuged at 17,000 g for 20 minutes at 4° C. The supernatant material after this centrifugation was discarded, the membrane sediment taken up with 5 mmol/l TRIS-acetate buffer pH 8.0 (20 ml/g original fresh weight) and homogenized with 10 piston strokes at 500 rpm.
The membrane homogenate was then incubated for 1 hour at 4° C. and centrifuged for 30 minutes at 50,000 g and 4° C. The supernatant material was discarded and the centrifuge tube with the membrane sediment sealed with parafilm and frozen for 24 hours at −20° C. The membrane sediment was thawed on the following day, taken up with ice-cold 5 mmol/l TRIS-acetate buffer, 0.1% saponin (w/v) pH 7.0 (10 ml/g original fresh weight), homogenized with 10 piston strokes at 500 rpm and subsequently centrifuged for 20 minutes at 50,00 g and 4° C. The resultant supernatant material was discarded, the sediment taken up in a small volume with 5 mmol/l TRIS-acetate buffer pH 7.0 (about 2 ml/g original fresh weight) and homogenized again with 10 piston strokes at 500 rpm. After determining the protein content, the membrane homogenate was adjusted to a protein concentration of 10 mg protein/ml using 5 mmol/l TRIS-acetate buffer pH 7.0 and frozen in aliquots for testing.
For the receptor binding test, aliquots were thawed, diluted 1:10 with 5 mmol/l TRIS-acetate buffer pH 7.0, homogenized with 10 piston strokes at 500 rpm using the potter homogenizer (10 piston strokes at 500 rpm) while cooling with ice and centrifuged for 60 minutes at 55,000 g at 4° C. The supernatant material was decanted, the membrane sediment adjusted to a protein concentration of 1 mg/ml with ice-cold 50 mmol/l TRIS-acetate buffer pH 7.0, homogenized again with 10 piston strokes at 500 rpm and kept in suspension in the ice bath while stirring on a magnetic stirrer. 100 μl of this membrane homogenate per 1 ml of feedstock was used in each case in the receptor binding test (0.1 mg protein/ml in the final batch).
In the binding test, 50 mmol/l TRIS-acetate buffer pH 7.0 was used as buffer and 1 nmol/l (^3H)-MDL 105.519 (B. M. Baron et al 1996) was used as radioactive ligand. The proportion of unspecific binding was determined in the presence of 1 mmol/l glycine.
In further batches, the compounds according to the invention were added in concentration series and the displacement of the radioactive ligand from its specific binding to the glycine binding site of the NMDA receptor channel determined. The respective triple batches were incubated for 120 minutes at 4° C. and then harvested to determine the radioactive ligands bound to the membrane homogenate by filtration through glass fiber filter mats (GF/B). […]
On to `O=C(O)C1CC(c2ccc(Br)cc2)c2c(Cl)cc(Cl)cc2N1` (centres unmarked) [Example 40, 4-(4-bromophenyl)-5,7-dichloro-1 ,2,3,4-tetrahydroquinoline-2-carboxylic Acid], for which the inhibition at 10 µM was found to be 70%.
With `CCOC(=O)C1Nc2ccc(C#N)cc2C2c3ccccc3CC12` (centres unmarked) [Example 88, 2-cyano-5,6a,7,11b-tetrahydro-6H-indeno[2,1-c]quinoline-6-carboxylic acid ethyl ester], the inhibition at 10 µM is 34%.
The result for `O=C(O)C1CC(c2cccc(Br)c2)c2c(Cl)cc(Cl)cc2N1` (centres unmarked) [Example 38, 4-(3-bromophenyl)-5,7-dichloro-1,2,3,4-tetrahydroquinoline-2-carboxylic Acid] reads 72%.
As for `O=C(O)C1CC(c2cccc(F)c2)c2c(Cl)cc(Cl)cc2N1` (centres unmarked) [Example 29, 5,7-dichloro-4-(3-fluorophenyl)-1,2,3,4-tetrahydroquinoline-2-carboxylic Acid], the inhibition at 10 µM came to 78%.
The result for `O=C(O)C1CC(c2ccc(Cl)cc2)c2cc(Cl)c(C(F)(F)F)cc2N1` (centres unmarked) [Example 87, 6-chloro-4-(4-chlorophenyl)-7-trifluoromethyl-1,2,3,4-tetrahydroquinoline-2-carboxylic acid] reads 37%.
The figure for `O=C(O)C1CC(c2ccc(F)cc2)c2c(Cl)cc(Cl)cc2N1` (centres unmarked) [Example 31, 5,7-dichloro-4-(4-fluorophenyl)-1,2,3,4-tetrahydroquinoline-2-carboxylic Acid] is 58%.
In the case of `Cc1cccc(C2CC(C(=O)O)Nc3c(F)cc(Cl)cc32)c1` (centres unmarked) [Example 83, 6-chloro-8-fluoro-4-m-tolyl-1,2,3,4-tetrahydroquinoline-2-carboxylic acid], the inhibition at 10 µM amounted to 93%.
The figure for `CCOC(=O)C1CC(c2ccccc2Br)c2c(Cl)cc(Cl)cc2N1` (centres unmarked) [Example 36, 4-(2-bromophenyl)-5,7-dichloro-1,2,3,4-tetrahydroquinoline-2-carboxylic Acid Ethyl Ester] is 46%.
The figure for `CCOC(=O)C1Nc2cc(Cl)cc(Cl)c2C2CCCC12` (centres unmarked) [Example 59, 7,9-dichloro-2,3,3a,4,5,9b-hexahydro-1H-cyclopenta[c]quinoline-4-carboxylic Acid Ethyl Ester] is 14%.
The figure for `Cc1ccc(C2CC(C(=O)O)Nc3c2ccc(Cl)c3Cl)c(C)c1` (centres unmarked) [Example 86, 7,8-dichloro-4-(2,4-dimethylphenyl)-1,2,3,4-tetrahydroquinoline-2-carboxylic acid] is 33%; for `O=C(O)C1CC(c2ccccc2Br)c2cc(Br)cc(Cl)c2N1` (centres unmarked) [Example 92, 6-bromo-4-(2-bromophenyl)-8-chloro-1,2,3,4-tetrahydroquinoline-2-carboxylic acid] it is 62%.
Take `CCOC(=O)C1CC(c2ccc(C)cc2C)c2c(Cl)cc(Cl)cc2N1` (centres unmarked) [Example 21, 5,7-dichloro-4-(2,4-dimethylphenyl)-1,2,3,4-tetrahydroquinoline-2-carboxylic Acid Ethyl Ester]: the inhibition at 10 µM was found to be 26%.
The figure for `Cc1cccc(C2CC(C(=O)O)Nc3cc(Cl)cc(Cl)c32)c1` (centres unmarked) [Example 18, 5,7-dichloro-4-m-tolyl-1,2,3,4-tetrahydroquinoline-2-carboxylic Acid] is 51%; for `CCOC(=O)C1CC(c2ccccc2Cl)c2cc(Cl)ccc2N1` (centres unmarked) [Example 52, 6-chloro-4-(2-chlorophenyl)-1,2,3,4-tetrahydroquinoline-2-carboxylic Acid Ethyl Ester] it is 22%.
The figure for `CCOC(=O)C1Nc2cc(Cl)cc(Cl)c2C2C3CCC(C3)C12` (centres unmarked) [Example 60, 1,3-dichloro-7,10-methano-5,6,6a,7,8,9,10,10a-octahydrophenanthridine-6-carboxylic Acid Ethyl Ester] is 23%; for `O=C(O)C1CC(c2ccc3ccccc3c2)c2cc(F)cc(Cl)c2N1` (centres unmarked) [Example 81, 8-chloro-6-fluoro-4-naphthalene-2-yl-1,2,3,4-tetrahydroquinoline-2-carboxylic acid] it is 66%.
The result for `O=C(O)C1Nc2cc(Cl)cc(Cl)c2C2c3ccccc3CC12` (centres unmarked) [Example 101, 1,3-dichloro-5,6a,7,11b-tetrahydro-6H-indeno[2,1-c]quinoline-6-carboxylic acid] reads 98%; that for `CCOC(=O)C1CC(c2cccc(C(F)(F)F)c2)c2c(Cl)cc(Cl)cc2N1` (centres unmarked) [Example 41, 5,7-dichloro-4-(3-trifluoromethylphenyl)-1,2,3,4-tetrahydroquinoline-2-carboxylic Acid Ethyl Ester], 38%.
Regarding `O=C(O)C1CC(c2cccc(Cl)c2)c2c(Cl)cc(Cl)cc2N1` (centres unmarked) [Example 98, 5,7-dichloro-4-(3-chlorophenyl)-1,2,3,4-tetrahydroquinoline-2-carboxylic acid], the inhibition at 10 µM stood at 51%.
The figure for `N#Cc1ccc2c(c1)C(c1ccccc1Cl)CC(C(=O)O)N2` (centres unmarked) [Example 89, 4-(2-chlorophenyl)-6-cyano-1,2,3,4-tetrahydroquinoline-2-carboxylic acid] is 30%.
The figure for `O=C(O)C1Nc2cc(Cl)cc(Cl)c2C2c3ccccc3CCC12` (centres unmarked) [Example 100, 1,3-dichloro-5,6,6a,7,8,12b-hexahydrobenzo[k]phenanthridine-6-carboxylic acid] is 80%.
The result for `O=C(O)C1CC(c2ccccc2Cl)c2c(Cl)cc(Cl)cc2N1` (centres unmarked) [Example 32, 5,7-dichloro-4-(2-chlorophenyl)-1,2,3,4-tetrahydroquinoline-2-carboxylic Acid] reads 92%; that for `CCOC(=O)C1CC(c2cccc(C)c2)c2c(Cl)cc(Cl)cc2N1` (centres unmarked) [Example 17, 5,7-dichloro-4-m-tolyl-1,2,3,4-tetrahydroquinoline-2-carboxylic Acid Ester], 21%.
In the case of `O=C(O)C1CC(c2ccccc2)c2c(Cl)cc(Cl)cc2N1` (centres unmarked) [Example 15, 5,7-dichloro-4-phenyl-1,2,3,4-tetrahydroquinoline-2-carboxylic Acid], the inhibition at 10 µM was found to be 75%.
As for `O=C(O)C1CC(c2ccc(Cl)cc2)c2c(Cl)cc(Cl)cc2N1` (centres unmarked) [Example 97, 5,7-dichloro-4-(4-chlorophenyl)-1,2,3,4-tetrahydroquinoline-2-carboxylic acid], the inhibition at 10 µM turned out to be 39%.
The result for `Cc1ccc(C2CC(C(=O)O)Nc3cc(Cl)cc(Cl)c32)c(C)c1` (centres unmarked) [Example 22, 5,7-dichloro-4-(2,4-dimethylphenyl)-1,2,3,4-tetrahydroquinoline-2-carboxylic Acid] reads 68%; that for `COc1ccc(C2c3cc(Oc4ccccc4)ccc3NC(C(=O)O)C2C)cc1` (centres unmarked) [Example 82, 4-(4-methoxyphenyl)-3-methyl-6-phenoxy-1,2,3,4-tetrahydroquinoline-2-carboxylic acid], 96%.
With `Cc1cccc(C2CC(C(=O)O)Nc3c(Cl)cc(F)cc32)c1` (centres unmarked) [Example 84, 8-chloro-6-fluoro-4-m-tolyl-1,2,3,4-tetrahydroquinoline-2-carboxylic acid], the inhibition at 10 µM is 79%.
The figure for `CCOC(=O)C1Nc2c(Cl)cc(Br)cc2C(c2ccccc2)C1C` (centres unmarked) [Example 90, 6-bromo-8-chloro-3-methyl-4-phenyl-1,2,3,4-tetrahydroquinoline-2-carboxylic acid ethyl ester] is 46%.

The values above are taken from US6699877B2 (Gruenenthal GmbH, priority 2000, dated 2004).
